Laboratory results from US20090325906A1, “Methods and compositions for therapeutic treatment” (priority 2008, published 2009).
Where two headings read alike, the source gives them in different places.

Tests used:
[1] = Pharmacokinetics of FK 506 in male Lewis rats, whole blood drug levels; type: in vivo; settings: FK 506 1 mg/kg i.v. with i.p. LNS 0694 at different doses
Description: (§1) Animals: 8-9 weeks-old Lewis and Brown Norway male rats are obtained from Charles River Laboratories. General procedures for animal care and housing is in accordance with the National Research Council (NRC) Guide for the Care and Use of Laboratory Animals (1996) and the Animal Welfare Standards incorporated in 9 CFR Part 3, 1991.
Treatment: Lewis rats are treated as described in example 3. Subsets of 3 Lewis rats per group are used for blood sampling at each time point (Groups 2-5) as described in the table below.
Plasma Blood Sample Collection: Whole blood is collected from the retro-orbital sinus under 60:40 CO2:O2 anesthesia using EDTA as the anticoagulant. Sample collection is performed at 9 time points: 5, 15, and 30 min and 1, 2, 4, 6, 8, & 24 hr after administration of FK 506. Three samples are collected from each rat per group (Groups 2-5). The first 2 samples are collected under anesthesia, after which the animal regains consciousness and is retained until the next collection interval. […]
Drug levels are determined in collected whole blood samples using a bioanalytical method developed to detect parent drug levels.
Results: The pharmacokinetics parameters of FK 506 are determined in male Lewis rats after 1 mg/kg i.v. administration alone or in combination with i.p, administration of different doses of LNS 0694 (See FIG. 15).

[2] = tested on: LEW responder splenocytes activated with Con A; assay: Con A stimulated proliferation of spleen cells of treated Lewis rats; type: cell-based, rat; settings: LNS 0694 i.p. before FK 506 1 mg/kg i.v.
Description: (§2) Treatment: Lewis rats are treated with different single doses of LNS 0694 i.p. 30 minutes prior to single i.v. injections of tacrolimus at a concentration of 1 mg/kg as described in the table below.
(§3) Spleens are collected at 4 hr after administration of FK506 for use in the in vitro mixed lymphocyte reaction (MLR) and Con A assays. In addition to treated Lewis rats, spleens are collected from 5 Brown Norway rats (not treated) which are used for the in vitro assay.
(§4) Varying numbers of responder cells are mixed with a constant number of stimulators (105) in 96-well, U-bottom cell culture plates to give a final responder:stimulator (R:S) ratio of 10:1, 5:1, 1:1 and 0.5:1 in 200 μl CM. Control wells for each cell suspension contained 10^5 responders alone in medium and 105 pooled, irradiated stimulators alone in medium (separate wells). For a positive proliferative response, each responder (10^5) is treated with 2.5 μg/ml Con A.
Cultures are incubated at 37±° 1 C. for 72±2 hours in 5±1% CO2 humidified air. Each well is pulsed with 1 μCi tritiated thymidine for 18±2 hours before automatic harvesting and analysis in a liquid scintillation counter.

[3] = tested on: LEW responder splenocytes (lymphocyte proliferation); assay: Mixed lymphocyte reaction (MLR) with spleen cells of treated Lewis rats; type: cell-based, rat
Description: as §1, with “housing are” for “housing is”
as §2, §3
Mixed lymphocyte reactions: A single cell suspension of the spleen of each rat on test (LEW, responder) is prepared with a Dounce homogenizer and wash-medium. The cell suspension is depleted of red blood cells (treatment with NH4CL/Tris buffer) and washed twice with wash medium before resuspending in complete medium (CM; RPMI 1640 with 5% heat-inactivated (30 minutes at 56° C.) normal rat serum (from Lewis rats), 2 mM GlutaMAX, 100 U/ml penicillin and 100 μg/ml streptomycin mixture, and 55 μM 2-mercaptoethanol). A single cell suspension of splenocytes from five Brown Norway rats (BN, stimulators) is prepared with the same method. The BN splenocytes are pooled and irradiated with 1,500-2,000 rad (cesium source) before use.
as §4, with “A. […]” for “A.”
The results of the MLR assays [thymidine incorporation as counts per minute (CPM)] are expressed as mean±SD.

mouse spleen cells [4] = assay: In vitro Con A assay on spleen cells; type: cell-based; settings: for response of spleen cells to Con A (proliferation): high ([…]10^6 cells/well) and low (8×10^5 cells/well) cell concentration
Description: as §1
Spleens are collected for use in in vitro Con A and LPS assays.
Spleen cells are treated with Con A in the presence of vehicle, tacrolimus, quercetin or two different concentrations of tacrolimus (10^−8.2 and 10^−8.5 M) and increasing doses of quercetin at a high cell concentration (FIG. 13) or at a low cell concentration (FIG. 14). […] There is no significance difference between the effect of quercetin on tacrolimus induced cell suppression in vitro at the different concentrations used for quercetin. The same results are observed in cultures with low cell concentration (FIG. 14).

mouse spleen cells [5] = assay: In vitro LPS assay on spleen cells; type: cell-based; settings: high ([…]10^6 cells/well) and low (8×10^5 cells/well) cell concentration
[6] = tested on: liver transplant patients; settings: two liver transplant trials; 514 patients tacrolimus and steroids, 515 patients CBIR; cited from earlier work
murine or human T cells = settings: disrupting calcium signaling events that lead to lymphokine production; cited from earlier work
[7] = tested on: renal transplant recipients; settings: cited from earlier work
[8] = tested on: heart transplant patients; settings: target range 5-15 ng/mL, tacrolimus treatment arm, European study; cited from earlier work
rats = type: in vivo
Description: Animals: 8-9 weeks-old rats are used. General procedures for animal care and housing are in accordance with the National Research Council (NRC) Guide for the Care and Use of Laboratory Animals (1996) and the Animal Welfare Standards incorporated in 9 CFR Part 3, 1991.
Treatment: Rats are treated i.v with FK506 and i.p. with Quercetin. Rats receive daily administrations containing either 0.5 mg/kg or 2 mg/kg of FK506 approximately one hour after the start of the light cycle. Rats are treated 30 minutes prior to FK506 treatment with quercetin at three different concentrations, 10 mg/kg, 25 mg/kg or 200 mg/kg. Subsets of 5 rats per group are used for blood sampling at each time point. Blood is collected for glucose measurement on days 0, 5, 9, and 14.

islet = settings: 0.01 μmol/liter, after 7-d incubation; cited from earlier work
[9] = Sulfobutylether-7-β-cyclodextrin quercetin aqueous composition: concentration and storage stability; type: physicochemical; settings: 10 mg/ml in water with sulfobutylether-7-β-cyclodextrin
Description: The flask is placed in an ice bath. When all of the Captisol is dissolved, 1.24 g of quercetin (Micron Technologies) (equivalent to about 1 g of anhydrous quercetin) is added with stirring. Into the flask, 12 ml of 1 N sodium hydroxide is added over about 5 to 10 minutes. […] Into the flask is then added 10.5 ml of hydrochloric acid over 5 to 10 minutes at a slow enough rate to avoid precipitation. During the addition of the sodium hydroxide and the hydrochloric acid, the temperature is maintained at less than 20° C. DI water is then added to give total volume of 100 ml. This procedure results in a sulfobutylether-7-β-cyclodextrin-quercetin aqueous composition at a concentration of 10 mg/ml (33 mM) in quercetin at a pH of about 7.8.

[10] = Solubility of quercetin with sulfobutylether-7-β-cyclodextrin and meglumine; type: physicochemical; settings: Captisol 30% w/v, Meglumine 44 mM, room temperature, about 10 minutes, excess solids removed
Description: Sulfobutylether-7-β-cyclodextrin (Captisol™) is dissolved in water to form a solution at 30% w/v. To the Captisol solution is added Meglumine at a concentration of 44 mM and […] at a concentration of about 20 mg/ml. The solution is stirred at room temperature for about 10 minutes. The solution is separated from any excess solids (e.g. by filtration). The concentration of quercetin in the solution is about 9.2 mg/mL.

[11] = cited from earlier work
[12] = quercetin or a quercetin derivative; cited from earlier work

For `O=c1c(O)c(-c2ccc(O)c(O)c2)oc2cc(O)cc(O)c12` [LNS 0694], the “peripheral bioavailability of FK506” value [1] was “increases the peripheral bioavailability of FK506 in a dose dependent manner”, the “FK 506 inhibitory effect on lymphocyte proliferation after Con A” value [2] was “increases FK 506 inhibitory effect” and the “FK 506 inhibitory effect on lymphocyte proliferation in MLR” value ([3]; LNS 0694 50, 150, 300 mg/kg i.p. 30 minutes before FK 506 1 mg/kg i.v.) was “increases FK 506 inhibitory effect in a dose-dependent manner”.
For `C=CC[C@@H]1/C=C(\C)C[C@H](C)C[C@H](OC)[C@H]2O[C@@](O)(C(=O)C(=O)N3CCCC[C@H]3C(=O)O[C@H](/C(C)=C/[C@@H]3CC[C@@H](O)[C@H](OC)C3)[C@H](C)[C@@H](O)CC1=O)[C@H](C)C[C@@H]2OC` (relative stereo) [tacrolimus, [3S-[3R[E(1S*,3S*,4S*)], 4S*,5R*,8S*,9E,12R*,14R*,15S*,16R*,18S*,19S*,26aR*]]-,6,8,11,12,13,14,15,16,17,18,19,24,25,26,26a-hexadecahydro-5,19-dihydroxy-3-[2-(4-hydroxy-3-methoxycyclohexyl)-1-methylethenyl]-14,16-dimethoxy-4,10,12,18-tetramethyl-8-(2-propenyl)-15,19-epoxy-3H-pyrido[2,1-c][1,4]oxaazacyclotricosine-1,7,20,21(4H,23H)-tetrone, monohydrate], the “response of spleen cells to Con A (proliferation)” value (mouse spleen cells [4]) is listed as “inhibits Con A-induced proliferation in a dose dependent manner”, the “response of spleen cells to LPS (proliferation)” value (mouse spleen cells [5]) is listed as “inhibits LPS-induced proliferation in a dose dependent manner” and the “proportion of patients reporting more than one adverse event” value [6] is listed as 99.8%. For the same compound, the “potency relative to CsA” value (murine or human T cells) was 50-100 fold, the “incidence of posttransplant diabetes mellitus (PTDM)” value ([7]; Japan) was 31.4% and the “incidence of posttransplant diabetes mellitus (PTDM)” value ([7]; western countries) was 10-30%. For the same compound, the “patients with trough concentrations within the pre-defined target range” value [8] was 74-86%, the “percent change of glucose blood level” value (rats; rat, in vivo, 0.5 mg/kg) was “greater increase” and the “glucose-stimulated insulin secretion, of the control value” (islet) was 32±5%. For the same compound, the “lymphocyte proliferation in MLR (thymidine incorporation)” value ([3]; FK 506 1 mg/kg i.v., spleens collected at 4 hr) was “inhibited” and the “inhibitory effect on MLR by R:S ratio” value ([3]; FK 506 1 mg/kg i.v., R:S ratios 0.5:1, 1:1, 5:1) was “stronger inhibitory effect at lower R:S ratios”.
For `O=c1c(O)c(-c2ccc(O)c(O)c2)oc2cc(O)cc(O)c12` [quercetin], the “tacrolimus induced cell suppression in vitro” value (mouse spleen cells [4]; Con A, tacrolimus 10^−8.2 and 10^−8.5 M with increasing doses of quercetin, high cell concentration) was “does not impair”, the “effect of tacrolimus on cells” value (mouse spleen cells [4]; conclusion of Example 6) was “does not alter” and the “response of spleen cells to Con A (proliferation)” value (mouse spleen cells [4]) was “no significant effect”. For the same compound, the “response of spleen cells to LPS (proliferation)” value (mouse spleen cells [5]) was “no significant effect”, the “stability of solution to precipitation” value [9] was “stable for more than two weeks without precipitation” and the “concentration of quercetin in the solution” value [10] was “about 9.2 mg/mL”. The FK506 induced hyperglycemia (rats; FK506 0.5 mg/kg i.v. daily, quercetin i.p. 30 minutes before, FIG. 2) was “decreases”, the “increase of glucose blood levels by FK506” value (rats; FK506 0.5 mg/kg, quercetin 10, 25 and 200 mg/kg) was “reduced” and the “increase of blood glucose (percent change)” value (rats; FK506 2 mg/kg + quercetin 10 mg/kg, day 9) was 60%. The “increase of blood glucose (percent change)” value (rats; FK506 2 mg/kg + quercetin 25 mg/kg, day 9) was 90%, the “percent change of blood glucose” value (rats; FK506 2 mg/kg + quercetin 200 mg/kg, day 9) was “reduced to the levels similar to rats treated with vehicle alone” and the FK506 induced hyperglycemia (rats; FK506 2 mg/kg i.v. daily, quercetin i.p. 30 minutes before, FIG. 1) was “decreases”. For the same compound, the “increase in glucose blood levels by FK506” value (rats; FK506 2 mg/kg, day 5, quercetin 10, 25 and 200 mg/kg) was “reduced”, the “increase of glucose blood levels by FK506” value (rats; FK506 2 mg/kg, day 9, quercetin 10, 25 and 200 mg/kg) was “reduced” and the FK506 induced hyperglycemia (rats; conclusion of Example 4, both FK506 doses) was “decreases”. For the same compound, the stability in solution ([11]; above pH 5) was “degradation”, the stability in solution ([11]; below pH 3) was “stable” and the serum half-life [12] was 19 to 25 h.
